Tested on: participants with SSc-RP
Assay: SHAQ - Visual Analog Scale - Pain
Type: in vivo, human
Conditions: for SHAQ VAS Pain, Change from Baseline, Max / SHAQ VAS Pain, Change from Baseline, Mean / SHAQ VAS Pain, Change from Baseline, Median / SHAQ VAS Pain, Change from Baseline, Min / SHAQ VAS Pain, Change from Baseline, Q1 / SHAQ VAS Pain, Change from Baseline, Q3 / SHAQ VAS Pain, Day 12, Max / SHAQ VAS Pain, Day 12, Mean / SHAQ VAS Pain, Day 12, Median / SHAQ VAS Pain, Day 12, Min / SHAQ VAS Pain, Day 12, Q1 / SHAQ VAS Pain, Day 12, Q3 / SHAQ VAS Pain, Percent Change from Baseline, Max / SHAQ VAS Pain, Percent Change from Baseline, Mean / SHAQ VAS Pain, Percent Change from Baseline, Median / SHAQ VAS Pain, Percent Change from Baseline, Min / SHAQ VAS Pain, Percent Change from Baseline, Q1 / SHAQ VAS Pain, Percent Change from Baseline, Q3: SSc patients, PP; for % change in Pain: SHAQ, mITT Part A
From the text: The standard, validated, patient reported outcome measures tool for SSc patients, the Scleroderma Health Assessment Questionnaire (SHAQ), will be used to assess the participant qualify of life. Details are attached in the Appendix. The participant quality of life will be scored, and a disability index calculated for each questionnaire completed by the patient at Screening and each in-clinic visit. The absolute change in participant quality of life from baseline to the end of each dosing period will be calculated similar to frequency data as before.
The standard, validated, patient reported outcome measures tool for SSc patients, the SHAQ, was collected at the time points specified in the study schedules (FIG. 2 and FIGS. 4A and 4B) to assess the participant's quality of life. The SHAQ included a Raynaud's VAS that will also be reported separately.
Pain on the SHAQ outcome measure on the first line in table F is a composite of all pain experienced in patients with SSc, comprising joint pain, back pain, headache, odynophagia, skin ulcer related discomfort, Raynaud's, and neuropathic pain. Aisa Pharma believes, based on the biologic attributes and actions of cilnidipine that differ from most dihydropyridine calcium channel antagonists that cilnidipine might have direct analgesic effects in certain pain conditions and in fact has been designated to receive evaluation through the […] Preclinical Pain Screening Platform Program to investigate the drug in multiple in vitro and in vivo preclinical models of pain that are validated and predictive of effects in man.

[1] = Any Cilnidipine (N = 17), Day 12, PP Population, Part A
[2] = Modified ITT Population-Part A, Day 12, dose cilnidipine 10 mg, tadalafil 5 mg, alone or combined as labelled
[3] = Modified ITT Population-Part A, Day 12, dose cilnidipine 20 mg, tadalafil 5 mg, alone or combined as labelled
[4] = Pooled Cilnidipine (N = 8), Day 12, PP Population, Part A
[5] = pooled Cilnidipine 10 mg and Cilnidipine 10 mg + Tadalafil 5 mg
[6] = pooled Cilnidipine 20 mg and Cilnidipine 20 mg + Tadalafil 5 mg
[7] = pooled cilnidipine 10 mg and 20 mg arms (combination: + tadalafil 5 mg)

COCCOC(=O)C1=C(C)NC(C)=C(C(=O)OC/C=C/c2ccccc2)C1c1cccc([N+](=O)[O-])c1 (stereo not drawn) [Cilnidipine]
SHAQ Visual Analogue Scale - Pain, Change from Baseline, Mean (SD) [1]: −0.575 (1.0318)
SHAQ Visual Analogue Scale - Pain, Change from Baseline, Median [1]: −0.600
SHAQ Visual Analogue Scale - Pain, In-Clinic Visit (Day 12), Mean (SD) [1]: 2.476 (1.7312)
SHAQ Visual Analogue Scale - Pain, In-Clinic Visit (Day 12), Median [1]: 2.200
SHAQ Visual Analogue Scale - Pain, Percent Change from Baseline, Mean (SD) [1]: −22.77 (31.937) %
SHAQ Visual Analogue Scale - Pain, Percent Change from Baseline, Median [1]: −22.58%
SHAQ VAS Pain, Change from Baseline, Max (Cilnidipine 10 mg, Part A): 0.30
SHAQ VAS Pain, Change from Baseline, Mean (Cilnidipine 10 mg, Part A): −0.100
SHAQ VAS Pain, Change from Baseline, Median (Cilnidipine 10 mg, Part A): 0.000
SHAQ VAS Pain, Change from Baseline, Min (Cilnidipine 10 mg, Part A): −0.70,
SHAQ VAS Pain, Change from Baseline, Q1 (Cilnidipine 10 mg, Part A): −0.350,
SHAQ VAS Pain, Change from Baseline, Q3 (Cilnidipine 10 mg, Part A): 0.150
SHAQ VAS Pain, Day 12, Max (Cilnidipine 10 mg, Part A): 3.60
SHAQ VAS Pain, Day 12, Mean (Cilnidipine 10 mg, Part A): 1.875
SHAQ VAS Pain, Day 12, Median (Cilnidipine 10 mg, Part A): 1.950
SHAQ VAS Pain, Day 12, Min (Cilnidipine 10 mg, Part A): 0.00,
SHAQ VAS Pain, Day 12, Q1 (Cilnidipine 10 mg, Part A): 0.500,
SHAQ VAS Pain, Day 12, Q3 (Cilnidipine 10 mg, Part A): 3.250
SHAQ VAS Pain, Percent Change from Baseline, Max (Cilnidipine 10 mg, Part A): 11.5
SHAQ VAS Pain, Percent Change from Baseline, Mean (Cilnidipine 10 mg, Part A): −9.88
SHAQ VAS Pain, Percent Change from Baseline, Median (Cilnidipine 10 mg, Part A): 0.00
SHAQ VAS Pain, Percent Change from Baseline, Min (Cilnidipine 10 mg, Part A): −41.2,
SHAQ VAS Pain, Percent Change from Baseline, Q1 (Cilnidipine 10 mg, Part A): −41.18,
SHAQ VAS Pain, Percent Change from Baseline, Q3 (Cilnidipine 10 mg, Part A): 11.54
% change in Pain (Cilnidipine 20 mg (n = 3)): −53%
SHAQ VAS Pain, Change from Baseline, Max (Cilnidipine 20 mg, Part A): 0.70
SHAQ VAS Pain, Change from Baseline, Mean (Cilnidipine 20 mg, Part A): −0.650
SHAQ VAS Pain, Change from Baseline, Min (Cilnidipine 20 mg, Part A): −2.00,
SHAQ VAS Pain, Change from Baseline, Q1 (Cilnidipine 20 mg, Part A): −1.400,
SHAQ VAS Pain, Change from Baseline, Q3 (Cilnidipine 20 mg, Part A): 0.100
SHAQ VAS Pain, Day 12, Max (Cilnidipine 20 mg, Part A): 4.30
SHAQ VAS Pain, Day 12, Mean (Cilnidipine 20 mg, Part A): 1.875
SHAQ VAS Pain, Day 12, Median (Cilnidipine 20 mg, Part A): 1.400
SHAQ VAS Pain, Day 12, Min (Cilnidipine 20 mg, Part A): 0.40,
SHAQ VAS Pain, Day 12, Q1 (Cilnidipine 20 mg, Part A): 0.550,
SHAQ VAS Pain, Day 12, Q3 (Cilnidipine 20 mg, Part A): 3.200
SHAQ VAS Pain, Percent Change from Baseline, Mean (Cilnidipine 20 mg, Part A): −34.56
SHAQ VAS Pain, Percent Change from Baseline, Min (Cilnidipine 20 mg, Part A): −55.6,
SHAQ VAS Pain, Percent Change from Baseline, Q1 (Cilnidipine 20 mg, Part A): −54.44,
SHAQ VAS Pain, Percent Change from Baseline, Q3 (Cilnidipine 20 mg, Part A): −14.67
Visual Analog Scale-Pain, Change from Baseline, Mean [2]: −0.100
Visual Analog Scale-Pain, Change from Baseline, Median [2]: 0.000
Visual Analog Scale-Pain, Percent Change from Baseline, Median [2]: 0.00%
Visual Analog Scale-Pain, Change from Baseline, Mean [3]: −1.100
Visual Analog Scale-Pain, Change from Baseline, Median [3]: −0.800
Visual Analog Scale-Pain, In Clinic Visit (Day 12), Median (Modified ITT Population-Part A, dose cilnidipine 20 mg, tadalafil 5 mg, alone or combined as labelled): 0.700
SHAQ Visual Analogue Scale - Pain, In-Clinic Visit (Day 12), Median (Pooled Cilnidipine 10 mg and Cilnidipine 10 mg + Tadalafil 5 mg (N = 9), Day 12, PP Population, Part A): 2.900
SHAQ Visual Analogue Scale - Pain, In-Clinic Visit (Day 12), Median (Pooled Cilnidipine 20 mg and Cilnidipine 20 mg + Tadalafil 5 mg (N = 8), Day 12, PP Population, Part A): 2.100
SHAQ Visual Analogue Scale - Pain, Change from Baseline, Mean (SD) [4]: −0.375 (0.8311)
SHAQ Visual Analogue Scale - Pain, In-Clinic Visit (Day 12), Mean (SD) [4]: 1.875 (1.5944)
SHAQ Visual Analogue Scale - Pain, Percent Change from Baseline, Mean (SD) [4]: −23.98 (32.893) %
% change in Pain (Pooled Cilnidipine (n = 7)): −31%
% Δ from baseline, VAS Pain median (Pooled cilnidipine (n=6)): −45%
SHAQ VAS-Pain (change) (cilnidipine 20 mg): −1.1
VAS Pain Change from Baseline Max [5]: 0.60
VAS Pain Change from Baseline Mean [5]: −0.633
VAS Pain Change from Baseline Median [5]: −0.700
VAS Pain Change from Baseline Min [5]: −2.80,
VAS Pain Change from Baseline Q1 [5]: −1.100,
VAS Pain Change from Baseline Q3 [5]: 0.000
VAS Pain Day 12 Max [5]: 5.50
VAS Pain Day 12 Median [5]: 2.900
VAS Pain Day 12 Min [5]: 0.00,
VAS Pain Day 12 Q1 [5]: 1.000,
VAS Pain Day 12 Q3 [5]: 3.800
VAS Pain Percent Change from Baseline Max [5]: 18.8%
VAS Pain Percent Change from Baseline Mean [5]: −20.07%
VAS Pain Percent Change from Baseline Median [5]: −21.87%
VAS Pain Percent Change from Baseline Min [5]: −72.2, %
VAS Pain Percent Change from Baseline Q1 [5]: −37.46, %
VAS Pain Percent Change from Baseline Q3 [5]: 5.77%
VAS Pain Change from Baseline Max [6]: 0.90
VAS Pain Change from Baseline Mean [6]: −0.700
VAS Pain Change from Baseline Median [6]: −0.650
VAS Pain Change from Baseline Min [6]: −2.00,
VAS Pain Change from Baseline Q1 [6]: −1.700,
VAS Pain Change from Baseline Q3 [6]: −0.100
VAS Pain Day 12 Max [6]: 5.30
VAS Pain Day 12 Mean [6]: 2.000
VAS Pain Day 12 Median [6]: 2.100
VAS Pain Day 12 Min [6]: 0.40,
VAS Pain Day 12 Q1 [6]: 0.700,
VAS Pain Day 12 Q3 [6]: 2.200
VAS Pain Percent Change from Baseline Max [6]: 20.5%
VAS Pain Percent Change from Baseline Median [6]: −51.06%
VAS Pain Percent Change from Baseline Min [6]: −58.6, %
VAS Pain Percent Change from Baseline Q1 [6]: −55.56, %
VAS Pain Percent Change from Baseline Q3 [6]: −4.55%
VAS Pain Change from Baseline Max [7]: 0.30
VAS Pain Change from Baseline Median [7]: −0.500
VAS Pain Change from Baseline Min [7]: −2.00,
VAS Pain Change from Baseline Q1 [7]: −0.800,
VAS Pain Change from Baseline Q3 [7]: 0.000
VAS Pain Day 12 Max [7]: 3.60
VAS Pain Day 12 Median [7]: 1.000
VAS Pain Day 12 Min [7]: 0.00,
VAS Pain Day 12 Q1 [7]: 0.400,
VAS Pain Day 12 Q3 [7]: 2.900
VAS Pain Percent Change from Baseline Max [7]: 11.5%
VAS Pain Percent Change from Baseline Min [7]: −55.6, %
VAS Pain Percent Change from Baseline Q1 [7]: −53.33, %
VAS Pain Percent Change from Baseline Q3 [7]: 0.00%

CN1CC(=O)N2[C@H](c3ccc4c(c3)OCO4)c3[nH]c4ccccc4c3C[C@@H]2C1=O [Tadalafil]
Visual Analog Scale-Pain, Change from Baseline, Mean [2]: 1.000
Visual Analog Scale-Pain, Change from Baseline, Median [2]: 0.800
Visual Analog Scale-Pain, In Clinic Visit (Day 12), Mean (Modified ITT Population-Part A, dose cilnidipine 10 mg, tadalafil 5 mg, alone or combined as labelled): 5.300
SHAQ VAS Pain, Change from Baseline, Max (Tadalafil 5 mg, Part A): 1.50
SHAQ VAS Pain, Change from Baseline, Mean (Tadalafil 5 mg, Part A): 1.000
SHAQ VAS Pain, Change from Baseline, Median (Tadalafil 5 mg, Part A): 0.800
SHAQ VAS Pain, Change from Baseline, Min (Tadalafil 5 mg, Part A): 0.70,
SHAQ VAS Pain, Change from Baseline, Q1 (Tadalafil 5 mg, Part A): 0.700,
SHAQ VAS Pain, Change from Baseline, Q3 (Tadalafil 5 mg, Part A): 1.500
SHAQ VAS Pain, Day 12, Max (Tadalafil 5 mg, Part A): 9.20
SHAQ VAS Pain, Day 12, Mean (Tadalafil 5 mg, Part A): 5.300
SHAQ VAS Pain, Day 12, Median (Tadalafil 5 mg, Part A): 5.850
SHAQ VAS Pain, Day 12, Min (Tadalafil 5 mg, Part A): 0.30,
SHAQ VAS Pain, Day 12, Q1 (Tadalafil 5 mg, Part A): 1.900,
SHAQ VAS Pain, Day 12, Q3 (Tadalafil 5 mg, Part A): 8.700
SHAQ VAS Pain, Percent Change from Baseline, Max (Tadalafil 5 mg, Part A): 75.0
SHAQ VAS Pain, Percent Change from Baseline, Mean (Tadalafil 5 mg, Part A): 31.35
SHAQ VAS Pain, Percent Change from Baseline, Median (Tadalafil 5 mg, Part A): 10.81
SHAQ VAS Pain, Percent Change from Baseline, Min (Tadalafil 5 mg, Part A): 8.2,
SHAQ VAS Pain, Percent Change from Baseline, Q1 (Tadalafil 5 mg, Part A): 8.24,
SHAQ VAS Pain, Percent Change from Baseline, Q3 (Tadalafil 5 mg, Part A): 75.00
